# From ChEMBL document CHEMBL1147101, “Development and persistence of antimicrobial resistance in Pseudomonas aeruginosa: a longitudinal observation in mechanically ventilated patients” (Antimicrob Agents Chemother, 2007)
# The source made the active and inactive calls. No cut-off for these calls is given here.
# How the values were obtained:
# Assay type in all cases: functional, organism-based
# Conditions in all cases: Trachea
# Pseudomonas aeruginosa [1] = assay: Antimicrobial activity against Pseudomonas aeruginosa 65.38-3 tracheal isolates from mechanically ventilated tuberculosis patient
# Pseudomonas aeruginosa [2] = assay: Antimicrobial activity against Pseudomonas aeruginosa 1B9 tracheal isolates from mechanically ventilated tuberculosis patient
# Pseudomonas aeruginosa [3] = assay: Antimicrobial activity against Pseudomonas aeruginosa 13E1 tracheal isolates from mechanically ventilated chronic respiratory insufficiency patient
# Pseudomonas aeruginosa [4] = assay: Antimicrobial activity against Pseudomonas aeruginosa 2C1 tracheal isolates from mechanically ventilated tuberculosis patient
# Pseudomonas aeruginosa [5] = assay: Antimicrobial activity against Pseudomonas aeruginosa 2A2 tracheal isolates from mechanically ventilated tuberculosis patient
# Pseudomonas aeruginosa [6] = assay: Antimicrobial activity against Pseudomonas aeruginosa 2C2 tracheal isolates from mechanically ventilated tuberculosis patient
# Pseudomonas aeruginosa [7] = assay: Antimicrobial activity against Pseudomonas aeruginosa 2A5 tracheal isolates from mechanically ventilated tuberculosis patient
# Pseudomonas aeruginosa [8] = assay: Antimicrobial activity against Pseudomonas aeruginosa 2A6 tracheal isolates from mechanically ventilated tuberculosis patient
# Pseudomonas aeruginosa [9] = assay: Antimicrobial activity against Pseudomonas aeruginosa 2A7 tracheal isolates from mechanically ventilated tuberculosis patient
# Pseudomonas aeruginosa [10] = assay: Antimicrobial activity against Pseudomonas aeruginosa 2A9 tracheal isolates from mechanically ventilated tuberculosis patient
# Pseudomonas aeruginosa [11] = assay: Antimicrobial activity against Pseudomonas aeruginosa 65.68-1 tracheal isolates from mechanically ventilated tuberculosis patient
# Pseudomonas aeruginosa [12] = assay: Antimicrobial activity against Pseudomonas aeruginosa 65.68-2 tracheal isolates from mechanically ventilated tuberculosis patient
# Pseudomonas aeruginosa [13] = assay: Antimicrobial activity against Pseudomonas aeruginosa 65.68-3 tracheal isolates from mechanically ventilated tuberculosis patient
# Pseudomonas aeruginosa [14] = assay: Antimicrobial activity against Pseudomonas aeruginosa 5H6 tracheal isolates from mechanically ventilated chronic respiratory insufficiency patient
# Pseudomonas aeruginosa [15] = assay: Antimicrobial activity against Pseudomonas aeruginosa 65.68-4 tracheal isolates from mechanically ventilated tuberculosis patient
# Pseudomonas aeruginosa [16] = assay: Antimicrobial activity against Pseudomonas aeruginosa 2A5 tracheal isolates from mechanically ventilated chronic respiratory insufficiency patient
# Pseudomonas aeruginosa [17] = assay: Antimicrobial activity against Pseudomonas aeruginosa 12B2 tracheal isolates from mechanically ventilated chronic respiratory insufficiency patient
# Pseudomonas aeruginosa [18] = assay: Antimicrobial activity against Pseudomonas aeruginosa 15H5 tracheal isolates from mechanically ventilated chronic respiratory insufficiency patient
# Pseudomonas aeruginosa [19] = assay: Antimicrobial activity against Pseudomonas aeruginosa 19B3 tracheal isolates from mechanically ventilated chronic respiratory insufficiency patient
# Pseudomonas aeruginosa [20] = assay: Antimicrobial activity against Pseudomonas aeruginosa 19B6 tracheal isolates from mechanically ventilated chronic respiratory insufficiency patient
# Pseudomonas aeruginosa [21] = assay: Antimicrobial activity against Pseudomonas aeruginosa 19C7 tracheal isolates from mechanically ventilated chronic respiratory insufficiency patient
# Pseudomonas aeruginosa [22] = assay: Antimicrobial activity against Pseudomonas aeruginosa 19D9 tracheal isolates from mechanically ventilated chronic respiratory insufficiency patient
# Pseudomonas aeruginosa [23] = assay: Antimicrobial activity against Pseudomonas aeruginosa 3D1 tracheal isolates from mechanically ventilated chronic respiratory insufficiency patient
# Pseudomonas aeruginosa [24] = assay: Antimicrobial activity against Pseudomonas aeruginosa 3D10 tracheal isolates from mechanically ventilated chronic respiratory insufficiency patient
# Pseudomonas aeruginosa [25] = assay: Antimicrobial activity against Pseudomonas aeruginosa 3E2 tracheal isolates from mechanically ventilated chronic respiratory insufficiency patient
# Pseudomonas aeruginosa [26] = assay: Antimicrobial activity against Pseudomonas aeruginosa 5F2 tracheal isolates from mechanically ventilated chronic respiratory insufficiency patient
# Pseudomonas aeruginosa [27] = assay: Antimicrobial activity against Pseudomonas aeruginosa 5F8 tracheal isolates from mechanically ventilated chronic respiratory insufficiency patient
# Pseudomonas aeruginosa [28] = assay: Antimicrobial activity against Pseudomonas aeruginosa 5G3 tracheal isolates from mechanically ventilated chronic respiratory insufficiency patient
# Pseudomonas aeruginosa [29] = assay: Antimicrobial activity against Pseudomonas aeruginosa 8A2 tracheal isolates from mechanically ventilated chronic respiratory insufficiency patient
# Pseudomonas aeruginosa [30] = assay: Antimicrobial activity against Pseudomonas aeruginosa 8A12 tracheal isolates from mechanically ventilated chronic respiratory insufficiency patient
# Pseudomonas aeruginosa [31] = assay: Antimicrobial activity against Pseudomonas aeruginosa 8C4 tracheal isolates from mechanically ventilated chronic respiratory insufficiency patient
# Pseudomonas aeruginosa [32] = assay: Antimicrobial activity against Pseudomonas aeruginosa 8B11 tracheal isolates from mechanically ventilated chronic respiratory insufficiency patient
# Pseudomonas aeruginosa [33] = assay: Antimicrobial activity against Pseudomonas aeruginosa 9A1 tracheal isolates from mechanically ventilated chronic respiratory insufficiency patient
# Pseudomonas aeruginosa [34] = assay: Antimicrobial activity against Pseudomonas aeruginosa 9A3 tracheal isolates from mechanically ventilated chronic respiratory insufficiency patient
# Pseudomonas aeruginosa [35] = assay: Antimicrobial activity against Pseudomonas aeruginosa 9A7 tracheal isolates from mechanically ventilated chronic respiratory insufficiency patient
# Pseudomonas aeruginosa [36] = assay: Antimicrobial activity against Pseudomonas aeruginosa 9B2 tracheal isolates from mechanically ventilated chronic respiratory insufficiency patient
# Pseudomonas aeruginosa [37] = assay: Antimicrobial activity against Pseudomonas aeruginosa 9B5 tracheal isolates from mechanically ventilated chronic respiratory insufficiency patient
# Pseudomonas aeruginosa [38] = assay: Antimicrobial activity against Pseudomonas aeruginosa 10A9 tracheal isolates from mechanically ventilated chronic respiratory insufficiency patient
# Pseudomonas aeruginosa [39] = assay: Antimicrobial activity against Pseudomonas aeruginosa 10B1 tracheal isolates from mechanically ventilated chronic respiratory insufficiency patient
# Pseudomonas aeruginosa [40] = assay: Antimicrobial activity against Pseudomonas aeruginosa 10B3 tracheal isolates from mechanically ventilated chronic respiratory insufficiency patient
# Pseudomonas aeruginosa [41] = assay: Antimicrobial activity against Pseudomonas aeruginosa 12A3 tracheal isolates from mechanically ventilated chronic respiratory insufficiency patient
# Pseudomonas aeruginosa [42] = assay: Antimicrobial activity against Pseudomonas aeruginosa 24G1 tracheal isolates from mechanically ventilated chronic respiratory insufficiency patient
# Pseudomonas aeruginosa [43] = assay: Antimicrobial activity against Pseudomonas aeruginosa 29F6 tracheal isolates from mechanically ventilated chronic respiratory insufficiency patient
# Pseudomonas aeruginosa [44] = assay: Antimicrobial activity against Pseudomonas aeruginosa 29G6 tracheal isolates from mechanically ventilated chronic respiratory insufficiency patient
# Pseudomonas aeruginosa [45] = assay: Antimicrobial activity against Pseudomonas aeruginosa 29G7 tracheal isolates from mechanically ventilated chronic respiratory insufficiency patient
# Pseudomonas aeruginosa [46] = assay: Antimicrobial activity against Pseudomonas aeruginosa 22D2 tracheal isolates from mechanically ventilated chronic respiratory insufficiency patient
# Pseudomonas aeruginosa [47] = assay: Antimicrobial activity against Pseudomonas aeruginosa 22D6 tracheal isolates from mechanically ventilated chronic respiratory insufficiency patient
# Pseudomonas aeruginosa [48] = assay: Antimicrobial activity against Pseudomonas aeruginosa 22E1 tracheal isolates from mechanically ventilated chronic respiratory insufficiency patient
# Pseudomonas aeruginosa [49] = assay: Antimicrobial activity against Pseudomonas aeruginosa 22C5 tracheal isolates from mechanically ventilated chronic respiratory insufficiency patient
# Pseudomonas aeruginosa [50] = assay: Antimicrobial activity against Pseudomonas aeruginosa 24E5 tracheal isolates from mechanically ventilated chronic respiratory insufficiency patient
# Pseudomonas aeruginosa [51] = assay: Antimicrobial activity against Pseudomonas aeruginosa P21.21 tracheal isolates from mechanically ventilated tuberculosis patient
# Pseudomonas aeruginosa [52] = assay: Antimicrobial activity against Pseudomonas aeruginosa 65.18-4 tracheal isolates from mechanically ventilated tuberculosis patient
# Pseudomonas aeruginosa [53] = assay: Antimicrobial activity against Pseudomonas aeruginosa P21.23 tracheal isolates from mechanically ventilated tuberculosis patient
# Pseudomonas aeruginosa [54] = assay: Antimicrobial activity against Pseudomonas aeruginosa 65.33-1 tracheal isolates from mechanically ventilated tuberculosis patient
# Pseudomonas aeruginosa [55] = assay: Antimicrobial activity against Pseudomonas aeruginosa 65.33-2 tracheal isolates from mechanically ventilated tuberculosis patient
# Pseudomonas aeruginosa [56] = assay: Antimicrobial activity against Pseudomonas aeruginosa 65.36-1 tracheal isolates from mechanically ventilated tuberculosis patient
# Pseudomonas aeruginosa [57] = assay: Antimicrobial activity against Pseudomonas aeruginosa 65.36-3 tracheal isolates from mechanically ventilated tuberculosis patient
# Pseudomonas aeruginosa [58] = assay: Antimicrobial activity against Pseudomonas aeruginosa 65.36-4 tracheal isolates from mechanically ventilated tuberculosis patient
# Pseudomonas aeruginosa [59] = assay: Antimicrobial activity against Pseudomonas aeruginosa 65.38-1 tracheal isolates from mechanically ventilated tuberculosis patient
smiles,measurement,setting,value
CCn1cc(C(=O)O)c(=O)c2cc(F)c(N3CCNCC3)cc21,Activity,Pseudomonas aeruginosa [1],Active
same,Activity,Pseudomonas aeruginosa [2],Active
same,Activity,Pseudomonas aeruginosa [3],Active
same,Activity,Pseudomonas aeruginosa [4],Active
same,Activity,Pseudomonas aeruginosa [5],Active
same,Activity,Pseudomonas aeruginosa [6],Active
same,Activity,Pseudomonas aeruginosa [7],Active
same,Activity,Pseudomonas aeruginosa [8],Active
same,Activity,Pseudomonas aeruginosa [9],Active
same,Activity,Pseudomonas aeruginosa [10],Active
same,Activity,Pseudomonas aeruginosa [11],Active
same,Activity,Pseudomonas aeruginosa [12],Active
same,Activity,Pseudomonas aeruginosa [13],Active
same,Activity,Pseudomonas aeruginosa [14],Active
same,Activity,Pseudomonas aeruginosa [15],Active
same,Activity,Pseudomonas aeruginosa [16],Active
same,Activity,Pseudomonas aeruginosa [17],Active
same,Activity,Pseudomonas aeruginosa [18],Active
same,Activity,Pseudomonas aeruginosa [19],Active
same,Activity,Pseudomonas aeruginosa [20],Active
same,Activity,Pseudomonas aeruginosa [21],Active
same,Activity,Pseudomonas aeruginosa [22],inactive
same,Activity,Pseudomonas aeruginosa [23],Active
same,Activity,Pseudomonas aeruginosa [24],Active
same,Activity,Pseudomonas aeruginosa [25],Active
same,Activity,Pseudomonas aeruginosa [26],Active
same,Activity,Pseudomonas aeruginosa [27],Active
same,Activity,Pseudomonas aeruginosa [28],Active
same,Activity,Pseudomonas aeruginosa [29],Active
same,Activity,Pseudomonas aeruginosa [30],Active
same,Activity,Pseudomonas aeruginosa [31],Active
same,Activity,Pseudomonas aeruginosa [32],Active
same,Activity,Pseudomonas aeruginosa [33],Active
same,Activity,Pseudomonas aeruginosa [34],Active
same,Activity,Pseudomonas aeruginosa [35],Active
same,Activity,Pseudomonas aeruginosa [36],Active
same,Activity,Pseudomonas aeruginosa [37],Active
same,Activity,Pseudomonas aeruginosa [38],Active
same,Activity,Pseudomonas aeruginosa [39],Active
same,Activity,Pseudomonas aeruginosa [40],Active
same,Activity,Pseudomonas aeruginosa [41],Active
same,Activity,Pseudomonas aeruginosa [42],Active
same,Activity,Pseudomonas aeruginosa [43],Active
same,Activity,Pseudomonas aeruginosa [44],Active
same,Activity,Pseudomonas aeruginosa [45],Active
same,Activity,Pseudomonas aeruginosa [46],Active
same,Activity,Pseudomonas aeruginosa [47],Active
same,Activity,Pseudomonas aeruginosa [48],Active
same,Activity,Pseudomonas aeruginosa [49],Active
same,Activity,Pseudomonas aeruginosa [50],Active
same,Activity,Pseudomonas aeruginosa [51],Active
same,Activity,Pseudomonas aeruginosa [52],Active
same,Activity,Pseudomonas aeruginosa [53],Active
same,Activity,Pseudomonas aeruginosa [54],Active
same,Activity,Pseudomonas aeruginosa [55],Active
same,Activity,Pseudomonas aeruginosa [56],Active
same,Activity,Pseudomonas aeruginosa [57],Active
same,Activity,Pseudomonas aeruginosa [58],Active
same,Activity,Pseudomonas aeruginosa [59],Active
CO/N=C(\C(=O)N[C@@H]1C(=O)N2C(C(=O)[O-])=C(C[N+]3(C)CCCC3)CS[C@H]12)c1csc(N)n1,Activity,Pseudomonas aeruginosa [2],inactive
same,Activity,Pseudomonas aeruginosa [3],Active
same,Activity,Pseudomonas aeruginosa [4],inactive
same,Activity,Pseudomonas aeruginosa [5],Active
same,Activity,Pseudomonas aeruginosa [6],Active
same,Activity,Pseudomonas aeruginosa [7],Active
same,Activity,Pseudomonas aeruginosa [9],inactive
same,Activity,Pseudomonas aeruginosa [11],Active
same,Activity,Pseudomonas aeruginosa [12],Active
same,Activity,Pseudomonas aeruginosa [13],Active
same,Activity,Pseudomonas aeruginosa [14],Active
same,Activity,Pseudomonas aeruginosa [15],Active
same,Activity,Pseudomonas aeruginosa [16],Active
same,Activity,Pseudomonas aeruginosa [17],Active
same,Activity,Pseudomonas aeruginosa [18],Active
same,Activity,Pseudomonas aeruginosa [19],Active
same,Activity,Pseudomonas aeruginosa [20],Active
same,Activity,Pseudomonas aeruginosa [21],Active
same,Activity,Pseudomonas aeruginosa [22],Active
same,Activity,Pseudomonas aeruginosa [23],Active
same,Activity,Pseudomonas aeruginosa [24],Active
same,Activity,Pseudomonas aeruginosa [25],Active
same,Activity,Pseudomonas aeruginosa [26],Active
same,Activity,Pseudomonas aeruginosa [27],Active
same,Activity,Pseudomonas aeruginosa [28],Active
same,Activity,Pseudomonas aeruginosa [29],Active
same,Activity,Pseudomonas aeruginosa [30],Active
same,Activity,Pseudomonas aeruginosa [31],Active
same,Activity,Pseudomonas aeruginosa [32],Active
same,Activity,Pseudomonas aeruginosa [33],Active
same,Activity,Pseudomonas aeruginosa [34],Active
same,Activity,Pseudomonas aeruginosa [35],Active
same,Activity,Pseudomonas aeruginosa [36],Active
same,Activity,Pseudomonas aeruginosa [37],Active
same,Activity,Pseudomonas aeruginosa [38],Active
same,Activity,Pseudomonas aeruginosa [39],Active
same,Activity,Pseudomonas aeruginosa [40],Active
same,Activity,Pseudomonas aeruginosa [41],Active
same,Activity,Pseudomonas aeruginosa [42],Active
same,Activity,Pseudomonas aeruginosa [43],Active
same,Activity,Pseudomonas aeruginosa [44],Active
same,Activity,Pseudomonas aeruginosa [45],Active
same,Activity,Pseudomonas aeruginosa [46],Active
same,Activity,Pseudomonas aeruginosa [47],Active
same,Activity,Pseudomonas aeruginosa [48],Active
same,Activity,Pseudomonas aeruginosa [49],Active
same,Activity,Pseudomonas aeruginosa [50],Active
same,Activity,Pseudomonas aeruginosa [51],Active
same,Activity,Pseudomonas aeruginosa [52],Active
same,Activity,Pseudomonas aeruginosa [53],Active
same,Activity,Pseudomonas aeruginosa [54],Active
same,Activity,Pseudomonas aeruginosa [55],Active
same,Activity,Pseudomonas aeruginosa [56],Active
same,Activity,Pseudomonas aeruginosa [58],inactive
same,Activity,Pseudomonas aeruginosa [59],inactive
